Holding throughout (format): cell-based
Experiment [1] has as its target T1, recombinant human norepinephrine transporter (Homo sapiens, UniProt P23975).
T1 construct: expressed in transfected cells; host or cells: HEK293 or MDCK
Kind of experiment: Norepinephrine functional uptake assay for human reuptake transporter. The conditions noted are these: [3H]norepinephrine uptake, HEK293 or MDCK cells expressing human norepinephrine transporter. As for the experimental part: Norepinephrine Functional Uptake Assay for Human Reuptake Transporter
The cells were plated before the assay. Test compound and/or vehicle was preincubated with cells in modified HEPES buffer pH 7.1 or pH 7.4 for 20 minutes at 18 to 25° C. . […] After the cells were washed to remove [^3H]norepinephrine not internalized, the cells were lysed, and the amount of tritium in the cell lysate was measured using a liquid scintillation counter to determine [^3H]norepinephrine uptake. Non-specific binding of tritium was measured in a control reaction containing 10 μM imipramine (or 10 μM nisoxetine), and was subtracted from the counts for assays to correct for non-specific binding of tritium. Reduction of [^3H]norepinephrine uptake by 50 percent or more (≧50%) relative to an uninhibited control reaction indicates significant inhibitory activity.

The target of experiment [2] is T2, recombinant human dopamine transporter (Homo sapiens, UniProt Q01959).
T2 construct: expressed in transfected cells; host or cells: CHO-K1 or HEK293
T2 sequence (Q01959 whole entry): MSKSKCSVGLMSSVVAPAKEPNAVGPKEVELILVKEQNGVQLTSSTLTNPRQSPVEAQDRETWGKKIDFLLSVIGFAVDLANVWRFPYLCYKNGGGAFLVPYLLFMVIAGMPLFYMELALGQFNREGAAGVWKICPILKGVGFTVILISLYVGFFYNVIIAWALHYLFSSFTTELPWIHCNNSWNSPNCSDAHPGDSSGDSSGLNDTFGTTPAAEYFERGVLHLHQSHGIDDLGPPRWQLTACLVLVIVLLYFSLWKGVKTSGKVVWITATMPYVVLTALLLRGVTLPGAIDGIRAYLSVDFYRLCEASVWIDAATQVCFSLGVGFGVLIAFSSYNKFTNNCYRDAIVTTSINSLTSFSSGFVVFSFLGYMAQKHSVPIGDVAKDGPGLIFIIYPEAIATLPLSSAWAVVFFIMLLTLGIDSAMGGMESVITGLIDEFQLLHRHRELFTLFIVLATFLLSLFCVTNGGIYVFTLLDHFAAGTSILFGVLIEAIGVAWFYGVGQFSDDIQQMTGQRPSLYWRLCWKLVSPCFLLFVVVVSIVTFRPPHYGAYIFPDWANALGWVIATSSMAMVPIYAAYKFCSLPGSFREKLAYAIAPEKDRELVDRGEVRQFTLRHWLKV
In words: Dopamine functional uptake assay for human reuptake transporter. As for the experimental part:
Dopamine Functional Uptake Assay for Human Reuptake Transporter
Either CHO-K1 or HEK293 cells expressing human recombinant dopamine transporter were plated before the assay. Test compound and/or vehicle was preincubated with cells in modified HEPES buffer pH 7.1 or pH 7.4 for 20 minutes at 18 to 25° C. and 50 nM [^3H]dopamine was then added for an additional timed incubation period (10 to 30 minutes). After washing the cells to remove [^3H]dopamine not internalized, the cells were lysed, and the amount of tritium in the lysate was measured using a liquid scintillation counter to determine [^3H]dopamine uptake. Non-specific binding of tritium was measured in a control reaction containing 10 μM nomifensine, and was subtracted from the counts for assays to correct for non-specific binding of tritium. Reduction of [^3H]dopamine uptake by 50 percent or more (≧50%) relative to an uninhibited control reaction indicates significant inhibitory activity.

For experiment [3], the target named is T3, recombinant human serotonin transporter (Homo sapiens, UniProt P31645).
T3 construct: expressed in transfected cells; host or cells: HEK-293
T3 sequence (P31645 whole entry): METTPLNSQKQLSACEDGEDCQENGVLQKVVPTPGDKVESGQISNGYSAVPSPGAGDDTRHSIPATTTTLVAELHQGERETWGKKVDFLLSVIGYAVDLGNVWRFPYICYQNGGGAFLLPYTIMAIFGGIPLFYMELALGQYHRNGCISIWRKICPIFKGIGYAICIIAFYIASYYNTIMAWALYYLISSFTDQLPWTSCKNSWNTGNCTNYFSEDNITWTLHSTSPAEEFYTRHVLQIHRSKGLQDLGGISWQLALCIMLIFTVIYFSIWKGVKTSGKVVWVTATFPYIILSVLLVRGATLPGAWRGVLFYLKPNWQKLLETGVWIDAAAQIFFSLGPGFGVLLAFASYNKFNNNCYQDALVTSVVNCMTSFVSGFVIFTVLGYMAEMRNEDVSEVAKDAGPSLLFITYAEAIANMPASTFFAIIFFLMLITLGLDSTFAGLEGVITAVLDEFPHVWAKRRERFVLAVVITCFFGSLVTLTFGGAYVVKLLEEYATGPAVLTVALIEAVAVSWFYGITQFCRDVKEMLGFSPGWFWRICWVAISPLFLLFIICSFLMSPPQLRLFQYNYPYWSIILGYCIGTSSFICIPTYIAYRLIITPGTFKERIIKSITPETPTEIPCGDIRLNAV
Kind of experiment: Serotonin functional uptake assay for human reuptake transporter. To be noted: [3H]serotonin uptake, HEK-293 cells expressing human serotonin transporter; read-out: Human IC50 (nM) SERT. As for the experimental part: Serotonin Functional Uptake Assay for Human Reuptake Transporter
HEK-293 cells expressing human serotonin transporter were plated before the assay. […] Cells with internalized [^3H]serotonin were washed and the amount of tritium taken into cells is counted using a liquid scintillation counter to determine [^3H]serotonin uptake.

Where [4] appears, read: [3H]dopamine uptake, CHO-K1 or HEK293 cells expressing human dopamine transporter, read-out: Human IC50 (nM) DAT.

Like-named read-outs stand apart in the source and are kept apart here.

As a reminder, the IC50 is the concentration needed to halve the response being measured.

T1 sequence (P23975 whole entry): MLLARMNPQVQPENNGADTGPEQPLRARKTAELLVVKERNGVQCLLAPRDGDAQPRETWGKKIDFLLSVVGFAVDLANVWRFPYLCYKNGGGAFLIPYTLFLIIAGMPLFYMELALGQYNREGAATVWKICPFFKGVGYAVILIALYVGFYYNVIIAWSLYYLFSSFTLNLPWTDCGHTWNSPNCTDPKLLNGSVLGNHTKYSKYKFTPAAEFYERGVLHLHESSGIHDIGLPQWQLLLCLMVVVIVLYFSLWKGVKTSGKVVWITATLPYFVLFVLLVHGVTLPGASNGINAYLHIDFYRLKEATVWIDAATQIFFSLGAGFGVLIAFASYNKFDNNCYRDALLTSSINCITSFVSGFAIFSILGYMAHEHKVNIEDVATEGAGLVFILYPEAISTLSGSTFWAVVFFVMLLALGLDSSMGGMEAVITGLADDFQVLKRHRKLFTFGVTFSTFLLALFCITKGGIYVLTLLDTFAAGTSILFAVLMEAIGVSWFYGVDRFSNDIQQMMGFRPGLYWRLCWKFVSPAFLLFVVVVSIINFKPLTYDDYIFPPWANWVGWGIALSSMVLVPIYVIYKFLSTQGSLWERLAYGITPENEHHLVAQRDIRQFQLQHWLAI

As for `N[C@H]1Cc2ccccc2[C@H](c2ccc(Cl)c(Cl)c2)C1` (single isomer, unassigned) [Compound 6b, [4-(3,4-dichlorophenyl)-1,2,3,4-tetrahydro-naphthalen-2-yl]-amine], the IC50 in experiment [1] (Human IC50 (nM) NET) was determined as 731 nM; in experiment [2] (Human IC50 (nM) DAT), 408 nM.
For `N[C@H]1Cc2ccccc2[C@H](c2ccc(Cl)c(Cl)c2)C1` (single isomer, unassigned) [Compound 6c, [4-(3,4-dichlorophenyl)-1,2,3,4-tetrahydro-naphthalen-2-yl]-amine], in that order: 855 nM and 894 nM.
For `N[C@H]1Cc2ccccc2[C@H](c2ccc(Cl)c(Cl)c2)C1` (single isomer, unassigned) [Compound 6d, [4-(3,4-dichlorophenyl)-1,2,3,4-tetrahydro-naphthalen-2-yl]-amine], the IC50 in experiment [1] (Human IC50 (nM) NET) was determined as 174 nM; in experiment [2] (Human IC50 (nM) DAT), 175 nM.
As for `CN[C@H]1Cc2ccccc2[C@H](c2ccc(Cl)c(Cl)c2)C1` (single isomer, unassigned) [Compound 7b, 4-(3,4-dichlorophenyl)-N-methyl-1,2,3,4-tetrahydronaphthalen-2-amine], the IC50 in experiment [2] (setting [4]) turned out to be 62 nM.
Turning to `CN[C@H]1Cc2ccccc2[C@H](c2ccc(Cl)c(Cl)c2)C1` (single isomer, unassigned) [Compound 7c, 4-(3,4-dichlorophenyl)-N-methyl-1,2,3,4-tetrahydronaphthalen-2-amine], in experiment [2] (setting [4]), the half-inhibitory concentration (IC50) stood at 281 nM.
Still for that read-out and setting: the value for `CN[C@H]1Cc2ccccc2[C@H](c2ccc(Cl)c(Cl)c2)C1` (single isomer, unassigned) [Compound 7d, 4-(3,4-dichlorophenyl)-N-methyl-1,2,3,4-tetrahydronaphthalen-2-amine] was 72 nM.
As to `CN(C)[C@H]1Cc2ccccc2[C@H](c2ccc(Cl)c(Cl)c2)C1` (single isomer, unassigned) [Compound 8b, [4-(3,4-dichlorophenyl)-1,2,3,4-tetrahydro-naphthalen-2-yl]-dimethylamine], the 50% inhibitory concentration (IC50) was found to be 174 nM in experiment [1] (Human IC50 (nM) NET) and 176 nM in experiment [2] (setting [4]).
For the molecule `CN(C)[C@H]1Cc2ccccc2[C@H](c2ccc(Cl)c(Cl)c2)C1` (single isomer, unassigned) [Compound 8c, [4-(3,4-dichlorophenyl)-1,2,3,4-tetrahydro-naphthalen-2-yl]-dimethylamine], the half-maximal inhibitory concentration (IC50) in experiment [1] (Human IC50 (nM) NET) came out at 164 nM; in experiment [2] (setting [4]), 273 nM.
For `CN(C)[C@H]1Cc2ccccc2[C@H](c2ccc(Cl)c(Cl)c2)C1` (single isomer, unassigned) [Compound 8d, [4-(3,4-dichlorophenyl)-1,2,3,4-tetrahydro-naphthalen-2-yl]-dimethylamine], the results for the 50% inhibitory concentration (IC50) in experiment [1] (Human IC50 (nM) NET) and in experiment [2] (setting [4]) were 98 nM and 319 nM, respectively.
For `CNC[C@H]1Cc2ccccc2[C@H](c2ccc(Cl)c(Cl)c2)C1` (single isomer, unassigned) [Compound 15b, [4-(3,4-dichlorophenyl)-1,2,3,4-tetrahydro-naphthalen-2-ylmethyl]-methylamine], in that order: 126 nM and 103 nM.
For `CNC[C@H]1Cc2ccccc2[C@H](c2ccc(Cl)c(Cl)c2)C1` (single isomer, unassigned) [Compound 15c, [4-(3,4-dichlorophenyl)-1,2,3,4-tetrahydro-naphthalen-2-ylmethyl]-methylamine] the same measures were 210 nM and 111 nM.
For `CNC[C@H]1Cc2ccccc2[C@H](c2ccc(Cl)c(Cl)c2)C1` (single isomer, unassigned) [Compound 15d, [4-(3,4-dichlorophenyl)-1,2,3,4-tetrahydro-naphthalen-2-ylmethyl]-methylamine] the same measures were 372 nM and 484 nM.
For the molecule `CN(C)CC1Cc2ccccc2C(c2ccc(Cl)c(Cl)c2)C1` (single isomer, unassigned) [Compound 16a, [4-(3,4-dichlorophenyl)-1,2,3,4-tetrahydro-naphthalen-2-ylmethyl]-dimethylamine], in experiment [1] (Human IC50 (nM) NET), the IC50 stood at 565 nM.
Consider `CN(C)CC1Cc2ccccc2C(c2ccc(Cl)c(Cl)c2)C1` (single isomer, unassigned) [Compound 16b, [4-(3,4-dichlorophenyl)-1,2,3,4-tetrahydro-naphthalen-2-ylmethyl]-dimethylamine], for which the IC50 in experiment [1] (Human IC50 (nM) NET) was 309 nM.
Regarding `CN(C)C1CC(c2ccc(Cl)c(Cl)c2)c2ccccc2C1O` (single isomer, unassigned) [Compound 23a, 4-(3,4-dichlorophenyl)-2-(dimethylamino)-1,2,3,4-tetrahydronaphthalen-1-ol], the half-maximal inhibitory concentration (IC50) amounted to 117 nM in experiment [3], 710 nM in experiment [1] (read-out: Human IC50 (nM) NET) and 371 nM in experiment [2] (setting [4]).
In the case of `CN(C)C1CC(c2ccc(Cl)c(Cl)c2)c2ccccc2C1O` (single isomer, unassigned) [Compound 23b, 4-(3,4-dichlorophenyl)-2-(dimethylamino)-1,2,3,4-tetrahydronaphthalen-1-ol], the values for the IC50 in experiment [3], in experiment [1] (Human IC50 (nM) NET) and in experiment [2] (setting [4]) were 1300 nM, 48 nM and 67 nM, respectively.
For `CN(C)C1CC(c2ccc(Cl)c(Cl)c2)c2ccccc2C1O` (single isomer, unassigned) [Compound 23c, 4-(3,4-dichlorophenyl)-2-(dimethylamino)-1,2,3,4-tetrahydronaphthalen-1-ol], in that order: 2360 nM, 36 nM and 21 nM.
For `CN(C)C1CC(c2ccc(Cl)c(Cl)c2)c2ccccc2C1O` (single isomer, unassigned) [Compound 23d, 4-(3,4-dichlorophenyl)-2-(dimethylamino)-1,2,3,4-tetrahydronaphthalen-1-ol], in that order: 48 nM, 65 nM and 48 nM.
With `CN[C@H]1Cc2ccc(OC)cc2[C@@H](c2ccc(Cl)c(Cl)c2)C1` (single isomer, unassigned) [Compound 32a.1, 4-(3,4-dichlorophenyl)-6-methoxy-N-methyl-1,2,3,4-tetrahydronaphthalen-2-amine], the figures for the concentration for half-maximal inhibition (IC50) in experiment [3], in experiment [1] (read-out: Human IC50 (nM) NET) and in experiment [2] (setting [4]) were 162 nM, 1210 nM and 1080 nM, respectively.
As for `CN[C@H]1CCc2ccccc2[C@H]1c1ccc(Cl)c(Cl)c1` (single isomer, unassigned) [Compound 36a, 1-(3,4-dichlorophenyl)-N-methyl-1,2,3,4-tetrahydronaphthalen-2-amine], the results for the 50% inhibitory concentration (IC50) in experiment [1] (read-out: Human IC50 (nM) NET) and in experiment [2] (setting [4]) were 3450 nM and 511 nM, respectively.
Take `CN[C@H]1CCc2ccccc2[C@H]1c1ccc(Cl)c(Cl)c1` (single isomer, unassigned) [Compound 36b, 1-(3,4-dichlorophenyl)-N-methyl-1,2,3,4-tetrahydronaphthalen-2-amine]: in experiment [1] (read-out: Human IC50 (nM) NET), the IC50 amounted to 7090 nM.
On to `CN[C@H]1CCc2ccccc2[C@H]1c1ccc(Cl)c(Cl)c1` (single isomer, unassigned) [Compound 36c, 1-(3,4-dichlorophenyl)-N-methyl-1,2,3,4-tetrahydronaphthalen-2-amine], for which the IC50 in experiment [1] (read-out: Human IC50 (nM) NET) came out at 745 nM; in experiment [2] (setting [4]) it was 88 nM.
For `CN[C@H]1CCc2ccccc2[C@H]1c1ccc(Cl)c(Cl)c1` (stereo in doubt) [Compound 36d, 1-(3,4-dichlorophenyl)-N-methyl-1,2,3,4-tetrahydronaphthalen-2-amine] the same measures were 1620 nM and 204 nM.
For the molecule `N[C@H]1Cc2ccccc2[C@H](c2ccc(Cl)c(Cl)c2)C1` [Compound 6a, [4-(3,4-dichlorophenyl)-1,2,3,4-tetrahydro-naphthalen-2-yl]-amine], the 50% inhibitory concentration (IC50) in experiment [1] (read-out: Human IC50 (nM) NET) turned out to be 124 nM; in experiment [2] (read-out: Human IC50 (nM) DAT), 350 nM.
For `CN[C@H]1Cc2ccccc2[C@H](c2ccc(Cl)c(Cl)c2)C1` [Compound 7a, 4-(3,4-dichlorophenyl)-N-methyl-1,2,3,4-tetrahydronaphthalen-2-amine], in experiment [2] (setting [4]), the IC50 is 114 nM.
Turning to `CN(C)[C@H]1Cc2ccccc2[C@H](c2ccc(Cl)c(Cl)c2)C1` [Compound 8a, [4-(3,4-dichlorophenyl)-1,2,3,4-tetrahydro-naphthalen-2-yl]-dimethylamine], the IC50 is 167 nM in experiment [1] (read-out: Human IC50 (nM) NET) and 454 nM in experiment [2] (setting [4]).
With `CNC[C@H]1Cc2ccccc2[C@H](c2ccc(Cl)c(Cl)c2)C1` [Compound 15a, [4-(3,4-dichlorophenyl)-1,2,3,4-tetrahydro-naphthalen-2-ylmethyl]-methylamine], the results for the IC50 in experiment [1] (read-out: Human IC50 (nM) NET) and in experiment [2] (setting [4]) were 72 nM and 125 nM, respectively.

Values taken from patent US8053603B2, “Tetralone-based monoamine reuptake inhibitors” (Sunovion Pharmaceuticals Inc., priority 2006, dated 2011).
